Measurements from patent publication US9458508B2, “Methods and compositions for the diagnosis and treatment of cancer resistant to anaplastic lymphoma kinase (ALK) kinase inhibitors” (St. Jude Children's Research Hospital, priority 2010, dated 2016).

Tested on: parental BaF3 cells
Assay: cells
Conditions: Mus musculus, BaF3, 72 h
Protocol: Parental BaF3 cells (“BaF3”) were also tested as a normal, non-ALK-dependent cell control.

Which IC50 does the source give for C[C@@H](Oc1cc(-c2cnn(C3CCNCC3)c2)cnc1N)c1c(Cl)ccc(F)c1Cl [PF-02341066] here?
The IC50 was 1460 nM.
